Reference: publication PMC7982521, “Studies on the Changes of Pharmacokinetics Behaviors of Phytochemicals and the Influence on Endogenous Metabolites After the Combination of Radix Bupleuri and Radix Paeoniae Alba Based on Multi-Component Pharmacokinetics and Metabolomics” (Frontiers in Pharmacology, 2021)
Counter-ions that a name gives are not always drawn. Like-named read-outs stand apart in the source and are kept apart here.

Assay: Multi-component pharmacokinetics in rat plasma after oral administration of RB, RPA or RB-RPA extracts (UPLC-HRMS, non-compartmental analysis)
Type: in vivo, Sprague-Dawley rats
Conditions: for AUC0-t / AUC0-∞ / Cmax / t1/2 / tmax / AUC(0-inf) / half-life: rat plasma, mean ± SD, n = 7; for change of AUC0-∞ after combination: oral RB-RPA group vs single herbal group (RB or RPA)
Procedure: (Beijing, China, No. SCXK2018-0011). […] All rats were free to access the water and food until 12 h before the experiment. The animal study was reviewed and approved by the Experimental Animal Ethical Committee of Modern Research Center for Traditional Chinese Medicine, Shanxi University (animal ethic approval number: SXULL2018018), and all experimental procedures were carried out in accordance with the NIH Guide for the Care and Use of Laboratory Animals. After one week of adaptation, twenty-one rats were divided into three groups randomly, with seven rats in each group: 1) RPA group, were oral administration of Radix Paeoniae Alba extract (45 g-herb/kg); 2) RB group, were oral administration of Radix Bupleuri extract (45 g-herb/kg); 3) RB-RPA group, were oral administration of powder mixture of Radix Bupleuri and Radix Paeoniae Alba extracts (containing 45 g-herb/kg Radix Bupleuri and 45 g-herb/kg Radix Paeoniae Alba). […] Each group received intragastric administration with a volume of 10 ml/kg (rat body weight). […] All rats were free to access the water during the experiment. The blood samples at each time point were collected from seven rats. The blood samples were centrifuged at 4,000 rpm for 10 min and frozen at -80°C until analysis. Using a Thermo-Fisher Dionex UltiMate 3000 UHPLC system coupled with a Q Exactive Orbitrap-MS (Thermo-Fisher, United States) and Xcalibur workstation (Thermo-Fisher Scientific Inc.,Waltham, MA, United States) to acquire UPLC-HRMS raw data. Chromatographic separation of herb extracts and plasma samples was performed on an Acquity UPLC HSS T3 column (2.1 mm × 100 mm, 1.8 μm) maintained at 37°C. The flow rate was 0.2 ml/min and the injection volume was 5 μL. […] Mass spectrometry detection conditions were set as follows: the MS data were acquired under positive and negative ionization modes via heated electrospray ionization (HESI) source. […] The Q Exactive Orbitrap-MS has a fast positive and negative ion switching function, which could switch between positive-negative ion modes during the analysis of the same sample. So, we applied the method of switching ion modes in the detection process to quantify all analytes better. […] UPLC/MS/MS calibration and quantitation data were processed with Xcalibur workstation (Thermo-Fisher Scientific Inc., Waltham, MA, United States). For the eight components with standard reference, calculating their concentrations from the standard curves. For the other 30 components without standard reference, their concentrations were analyzed following the regression equations of homologous compounds ([Qiao et al., 2012]): paeoniflorin for P1 and M1 to M3; methylgallate for M4 to M10; saikosaponin […] and […]; saikosaponin […]; saikosaponin […]; saikosaponin B2 for P11 and M25 to […].

[1] = oral RB single extract 45 g-herb/kg
[2] = oral RB-RPA mixed extracts (45 g-herb/kg RB + 45 g-herb/kg RPA)
[3] = oral administration of mixed extracts RB-RPA
[4] = oral administration of single extract RPA
[5] = male, Sprague-Dawley, rat, plasma, po, 45 g/kg, oral administration of mixed extracts RB-RPA
[6] = male, Sprague-Dawley, rat, plasma, po, 45 g/kg, oral administration of mixed extracts RB-RPA, read-out: AUC0-t
[7] = male, Sprague-Dawley, rat, plasma, po, 45 g/kg, oral administration of mixed extracts RB-RPA, read-out: Cmax
[8] = male, Sprague-Dawley, rat, plasma, po, 45 g/kg, oral administration of mixed extracts RB-RPA, read-out: tmax
[9] = male, Sprague-Dawley, rat, plasma, po, 45 g/kg, oral administration of single extract RPA
[10] = male, Sprague-Dawley, rat, plasma, po, 45 g/kg, oral administration of single extract RPA, read-out: AUC0-t
[11] = male, Sprague-Dawley, rat, plasma, po, 45 g/kg, oral administration of single extract RPA, read-out: Cmax

Molecule | AUC0-t [1] [ng·h/mL] | AUC0-∞ [1] [ng·h/mL] | Cmax [1] [ng/mL] | t1/2 [1] [h] | tmax [1] [h] | AUC0-t [2] [ng·h/mL] | AUC0-∞ [2] [ng·h/mL] | t1/2 [2] [h] | tmax [2] [h] | AUC0-t [3] [ng·h/mL] | AUC0-∞ [3] [ng·h/mL] | Cmax [3] [ng/mL] | t1/2 [3] [h] | tmax [3] [h] | AUC0-t [4] [ng·h/mL] | AUC0-∞ [4] [ng·h/mL] | Cmax [4] [ng/mL] | t1/2 [4] [h] | tmax [4] [h] | Cmax [2] [ng/mL] | further results
C[C@H]1O[C@@H](O[C@H]2CC[C@@]3(C)[C@@H](CC[C@]4(C)[C@@H]3C=C[C@]35OC[C@@]6(CCC(C)(C)C[C@H]63)[C@H](O)C[C@]54C)[C@]2(C)CO)[C@H](O)[C@@H](O[C@@H]2O[C@H](CO)[C@@H](O)[C@H](O)[C@H]2O)[C@H]1O [Saikosaponin D] | 67.73 ± 18.62 | 69.92 ± 17.38 | 42.84 ± 11.53 | 2.01 ± 0.34 | 0.50 ± 0.16 | 99.98 ± 31.48 | 103.56 ± 33.67 | 2.98 ± 0.89 | 0.87 ± 0.38 | – | – | – | – | – | – | – | – | – | – | – | change of t1/2 after combination (rat, oral RB-RPA group vs single herbal group): longer
C[C@@]12C[C@@]3(O)O[C@@H](O1)[C@]1(CO)[C@H]3C[C@@]12O[C@@H]1O[C@H](CO)[C@@H](O)[C@H](O)[C@H]1O [Desbenzoylpaeoniflorin] | – | – | – | – | – | – | – | – | – | 27.39 ± 15.84 | 28.66 ± 16.13 | 10.12 ± 5.32 | 2.17 ± 0.95 | 0.58 ± 0.13 | 18.66 ± 9.99 | 20.34 ± 9.44 | 8.76 ± 4.90 | 2.72 ± 1.32 | 0.75 ± 0.16 | – | –
CC1(C)CC[C@]23CO[C@@]4(C=C[C@@H]5[C@@]6(C)CC[C@H](O)[C@@](C)(CO)[C@@H]6CC[C@@]5(C)[C@]4(C)C[C@@H]2O)[C@@H]3C1 [Saikogenin F] | 156.14 ± 83.93 | 159.01 ± 82.32 | 30.25 ± 13.93 | 4.01 ± 1.88 | 1.04 ± 0.25 | 301.08 ± 199.77 | 347.02 ± 174.43 | 6.80 ± 2.11 | 1.17 ± 0.26 | – | – | – | – | – | – | – | – | – | – | 34.09 ± 17.25 | –
Paeonimetabolin II | – | – | – | – | – | – | – | – | – | 9490.91 ± 4705.90 | 13198.67 ± 4477.34 | 984.50 ± 452.44 | 9.30 ± 2.76 | 1.17 ± 0.90 | 6694.27 ± 2468.69 | 8022.12 ± 2764.81 | 850.12 ± 292.63 | 9.22 ± 2.04 | 1.04 ± 0.37 | – | change of AUC0-∞ after combination (rat): significantly increased
C[C@]12C[C@@H](O)[C@@H]3C[C@@]1(O[C@@H]1O[C@H](CO)[C@@H](O)[C@H](O)[C@H]1O)[C@@]3(COC(=O)c1ccccc1)C(=O)O2 [Albiflorin] | – | – | – | – | – | – | – | – | – | 1834.06 ± 191.89 | 1849.80 ± 396.92 | 365.94 ± 41.75 | 3.46 ± 0.56 | 0.71 ± 0.25 | 1202.69 ± 302.31 | 1210.33 ± 303.04 | 271.50 ± 63.29 | 3.19 ± 0.58 | 1.25 ± 0.89 | 365.94 ± 41.75 | Cmax (oral RPA single extract 45 g-herb/kg): 271.50 ± 63.29 ng/mL; change of AUC0-∞ after combination (rat): significantly increased
C[C@H]1O[C@@H](O[C@H]2CC[C@@]3(C)[C@@H](CC[C@]4(C)[C@@H]3C=C[C@]35OC[C@@]6(CCC(C)(C)C[C@H]63)[C@@H](O)C[C@]54C)[C@]2(C)CO)[C@H](O)[C@@H](O)[C@H]1O [Prosaikogenin F] | 54.21 ± 25.01 | 57.97 ± 25.49 | 14.68 ± 6.91 | 2.91 ± 0.84 | 1.54 ± 0.78 | 71.62 ± 34.91 | 77.58 ± 36.46 | 3.46 ± 0.55 | 1.62 ± 0.74 | – | – | – | – | – | – | – | – | – | – | 18.36 ± 8.50 | –
C[C@@H]1O[C@@H](O[C@@H]2[C@H](O)[C@@H](O)[C@H](O[C@H]3CC[C@@]4(C)C(CC[C@]5(C)C4C=C[C@]46OC[C@@]7(CCC(C)(C)CC74)[C@@H](O)C[C@]65C)C3(C)C)O[C@@H]2CO[C@@H]2O[C@H](CO)[C@@H](O)[C@H](O)[C@H]2O)[C@H](O)[C@H](O)[C@H]1O (stereo partly drawn) [Saikosaponin C] | 38.82 ± 9.84 | 42.15 ± 8.73 | 31.12 ± 11.08 | 2.07 ± 1.12 | 0.50 ± 0.16 | 51.33 ± 16.19 | 53.67 ± 16.16 | 2.53 ± 1.54 | 0.66 ± 0.30 | – | – | – | – | – | – | – | – | – | – | 20.63 ± 5.65 | –
C[C@@]12C[C@@]3(O)O[C@@H](O1)[C@]1(COC(=O)c4ccccc4)[C@H]3C[C@@]12O[C@@H]1O[C@H](CO)[C@@H](O)[C@H](O)[C@H]1O [Paeoniflorin] | – | – | – | – | – | – | – | – | – | – | – | – | – | – | – | – | – | 2.71 ± 0.72 | – | – | Cmax (male, Sprague-Dawley, rat, plasma, po, 45 g-herb/kg, oral RPA single extract 45 g-herb/kg, read-out: Cmax): 1780 ± 513 ng/mL; AUC(0-inf) [5]: 7170 ± 1140 ng·h/mL; half-life [5]: 1.96 ± 0.37 h; AUC0-t [6]: 7170 ± 1140 ng·h/mL; Cmax [7]: 2930 ± 386 ng/mL; tmax [8]: 0.33 ± 0.13 h; AUC(0-inf) [9]: 4260 ± 873 ng·h/mL; AUC0-t [10]: 4260 ± 869 ng·h/mL; Cmax [11]: 1780 ± 513 ng/mL; Cmax (male, Sprague-Dawley, rat, plasma, po, oral RB-RPA mixed extracts (45 g-herb/kg RB + 45 g-herb/kg RPA), read-out: Cmax): 2930 ± 386 ng/mL; change of AUC0-∞ after combination (rat): significantly increased
O=S(=O)(O)Oc1cccc(O)c1O [Pyrogallol sulfate] | – | – | – | – | – | – | – | – | – | 217.62 ± 126.82 | 257.66 ± 175.61 | 24.16 ± 13.26 | 7.54 ± 3.63 | 1.75 ± 0.61 | 164.21 ± 79.60 | 187.63 ± 91.25 | 18.42 ± 5.81 | 7.72 ± 3.81 | 2.50 ± 0.78 | – | –
COC(=O)c1cc(O)c(O)c(O)c1 [Methyl gallate] | – | – | – | – | – | – | – | – | – | – | – | – | – | – | – | – | – | – | – | – | AUC(0-inf) [5]: 213 ± 40.5 ng·h/mL; half-life [5]: 4.77 ± 3.32 h; AUC0-t [6]: 187 ± 42.4 ng·h/mL; Cmax [7]: 57.6 ± 7.34 ng/mL; tmax [8]: 0.5 ± 0.16 h; AUC(0-inf) [9]: 144 ± 59.1 ng·h/mL; half-life [9]: 4.11 ± 2.31 h; AUC0-t [10]: 141 ± 61.3 ng·h/mL; Cmax [11]: 48.6 ± 9.47 ng/mL; tmax (male, Sprague-Dawley, rat, plasma, po, 45 g/kg, oral administration of single extract RPA, read-out: tmax): 0.58 ± 0.13 h; change of AUC0-∞ after combination (rat): significantly increased
CC1(C)CC[C@]23CO[C@@]4(C=C[C@@H]5[C@@]6(C)CC[C@H](O)C(C)(C)[C@@H]6CC[C@@]5(C)[C@]4(C)C[C@@H]2O)[C@@H]3C1 [Saikogenin E] | 34.53 ± 9.88 | 38.46 ± 9.92 | 12.31 ± 5.03 | 3.40 ± 1.47 | 0.75 ± 0.16 | 40.24 ± 15.68 | 45.24 ± 14.83 | 3.99 ± 2.19 | 0.79 ± 0.10 | – | – | – | – | – | – | – | – | – | – | 13.41 ± 6.28 | –
